In data set [1] the test system is NCI-H358 non-small cell lung cancer cells. Nature of the data set: Inhibition of NCI-H358 cell proliferation (CellTiter-Glo 3D, 7 days). In kind it is cell-based. The following applies: Homo sapiens, NCI-H358, 168 h, 3D microspheres, read-out: Inhibitory activity against NCI-H358 cell proliferation (IC50). As to the method: The number of viable cells were detected by CellTiter-Glo 3D® reagent, thereby evaluating the inhibitory effect of compounds on cell proliferation. NCI-H358 non-small cell lung cancer cells (Nanjing cobioer) in the exponential growth phase were digested with trypsin-EDTA, and seeded into 96-well ultra-low attachment microplates at 100 µL per well with a density of 2000 cells/well. The cells were cultured overnight at 37°C with 5% CO2 to form microspheres. The test compounds were serially diluted 5-fold with DMSO to obtain 8 concentration gradient dilutions, then diluted with RPMI-1640 (10% FBS) cell culture medium respectively to obtain compound working solutions (2×). 100 µL per well was added to the cell supernatant, and the culture was continued for 7 days under the conditions of 37°C and 5% CO2. The well plate was removed, and 100 µL of CellTiter-Glo 3D® reagent was added. After lysis at room temperature for 10-30 minutes, 70 µL of the lysate was aspirated and transferred to a white opaque 384-well plate.
The inhibition rate was calculated by the following formula: [formula] Note: The negative control refers to the group without inhibitor, and the blank refers to the group without cells.
The inhibitory activities of some Example compounds and comparative compounds against NCI-H358 cell proliferation are shown in Table 2. Table 2. Inhibitory activity of some Example compounds against NCI-H358 cell proliferation

For a further data set, the target named is T1, SOS1 (Homo sapiens, UniProt Q07889).
T1 sequence (Q07889 1-1333): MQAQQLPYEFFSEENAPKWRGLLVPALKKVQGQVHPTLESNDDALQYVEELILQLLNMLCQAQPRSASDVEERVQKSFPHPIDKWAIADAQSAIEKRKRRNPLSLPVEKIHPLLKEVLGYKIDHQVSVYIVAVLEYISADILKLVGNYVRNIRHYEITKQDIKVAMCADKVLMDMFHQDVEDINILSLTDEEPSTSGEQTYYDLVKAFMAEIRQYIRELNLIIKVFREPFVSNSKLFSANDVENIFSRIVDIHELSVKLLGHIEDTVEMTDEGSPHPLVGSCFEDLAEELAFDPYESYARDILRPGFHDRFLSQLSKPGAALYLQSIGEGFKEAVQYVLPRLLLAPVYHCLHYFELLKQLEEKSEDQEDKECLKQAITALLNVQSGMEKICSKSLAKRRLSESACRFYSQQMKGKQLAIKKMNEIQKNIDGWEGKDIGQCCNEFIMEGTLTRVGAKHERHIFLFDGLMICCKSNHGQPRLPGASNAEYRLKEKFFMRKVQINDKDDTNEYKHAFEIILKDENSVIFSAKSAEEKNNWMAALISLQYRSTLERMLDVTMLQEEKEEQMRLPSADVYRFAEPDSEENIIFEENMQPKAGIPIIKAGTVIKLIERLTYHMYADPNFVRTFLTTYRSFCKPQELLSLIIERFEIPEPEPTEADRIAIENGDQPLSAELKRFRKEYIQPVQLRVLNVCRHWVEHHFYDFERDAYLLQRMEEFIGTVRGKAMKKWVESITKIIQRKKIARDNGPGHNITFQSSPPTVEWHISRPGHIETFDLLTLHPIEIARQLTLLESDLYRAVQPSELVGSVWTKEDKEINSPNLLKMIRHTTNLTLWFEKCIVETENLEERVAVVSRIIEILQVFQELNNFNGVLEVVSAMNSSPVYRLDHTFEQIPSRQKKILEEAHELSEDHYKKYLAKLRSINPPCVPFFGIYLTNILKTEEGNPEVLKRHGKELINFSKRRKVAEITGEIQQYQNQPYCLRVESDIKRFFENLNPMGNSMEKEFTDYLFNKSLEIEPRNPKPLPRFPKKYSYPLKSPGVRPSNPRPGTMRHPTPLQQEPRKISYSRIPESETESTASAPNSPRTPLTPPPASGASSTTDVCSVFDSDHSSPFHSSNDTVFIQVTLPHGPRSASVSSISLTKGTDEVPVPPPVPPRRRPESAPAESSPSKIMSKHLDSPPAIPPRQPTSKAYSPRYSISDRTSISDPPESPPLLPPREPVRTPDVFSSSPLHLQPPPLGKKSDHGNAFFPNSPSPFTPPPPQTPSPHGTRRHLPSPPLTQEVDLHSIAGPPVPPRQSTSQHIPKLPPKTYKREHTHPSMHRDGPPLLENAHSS
Nature of the data set: biochemical.

Data set [2] in a line: Rat liver microsomal metabolic stability. In kind it is in vitro ADME. The settings on record: rat liver microsomes. The source says: Metabolic stability affects the clearance rate, half-life, and oral bioavailability of compounds in the body, and is one of the most important ADME drug-like properties of compounds. Hepatocyte microsomal stability assay is a commonly used method for studying metabolic stability. In the present disclosure, rat liver microsomes are used to determine and investigate the metabolic stability of compounds.
Preparation of compound stock solution: an appropriate amount of the test compound and testosterone was taken, and a 1 mM stock solution was prepared with DMSO, which was stored in a refrigerator at 4°C.
Preparation of compound working solution: The 1 mM compound stock solution was taken respectively, and then diluted to 100 µM with acetonitrile-water (v:v = 1:1) to obtain the working solution.
Preparation of NADPH working solution: an appropriate amount of NADPH was weighed and dissolved in 16 mM MgCl2 to prepare a NADPH working solution with a concentration of 4.0 mM.
Preparation of rat liver microsome working solution: an appropriate amount of rat liver microsomes was taken and diluted with PBS to obtain a liver microsome working solution with a concentration of 1 mg/mL.
In the incubation system, 48 µL of PBS, 100 µL of rat liver microsome working solution, and 2 µL of the test compound working solution were sequentially added and mixed well. After pre-incubation at 37°C for 5 min, 50 µL of NADPH was added to initiate the reaction. After incubation for the corresponding time points, an appropriate amount of ice-cold acetonitrile containing an internal standard was added to terminate the reaction. The mixture was vortexed to mix well, centrifuged, and the supernatant was collected. The supernatant was injected into LC-MS/MS for detection of the residual metabolic amount of the compound.
Softwares of Excel, etc. were used for data processing according to the following formula. Ct = C0 •e^(−ke •t) [formula] when Ct = (1)/(2)C0 [formula] , T1/2 = (Ln2)/(ke) = (0.693)/(ke) [formula] CLint(mic) = (0.693)/(In vitro T1/2)•(1)/(mg/mL microsomal protein in reaction system) [formula] CLint(liver) = CLint(mic) •(mg microsomes)/(g liver)•(g liver)/(kg body weight) [formula] CL(liver) = (CLint(liver)×fu×Qh)/(CLint(liver)×fu+Qh) [formula] fu (unbound fraction in blood) was defaulted to be 1.

Data on 13 molecules can be found in patent publication EP4722213A1, “NITROGEN-CONTAINING FUNCTIONAL GROUP-SUBSTITUTED PYRIDAZINOPYRIDONE DERIVATIVE AND USE THEREOF” (Sichuan Huiyu Pharmaceutical Co., Ltd., priority 2023, dated 2024).

Counter-ions that a name gives are not always drawn.

As to `C[C@@H](Nc1nnc(N2CCCC2)c2cc(=O)n(C3(C)CC3)cc12)c1cccc(C(F)F)c1F` [Example 5, (R)-4-((1-(3-(difluoromethyl)-2-fluorophenyl)ethyl)amino)-6-(1-methylcyclopropyl)-1-(pyrrolidin-1-yl)pyrido[3,4-d]pyridazin-7(6H)-one], the IC50 in data set [1] was determined as 0.0501 µM; at SOS1, 0.0047 µM.

For `C[C@@H](Nc1nnc(N2CCC2)c2cc(=O)n(C3(C)CC3)cc12)c1cccc(C(F)F)c1F` [Example 16, (R)-1-(azetidin-1-yl)-4-((1-(3-(difluoromethyl)-2-fluorophenyl)ethyl)amino)-6-(1-methylcyclopropyl) pyrido[3,4-d]pyridazin-7(6H)-one formate], the IC50 in data set [1] came out at 0.0578 µM; against SOS1 it was 0.0041 µM.

On to `Cc1c([C@@H](C)Nc2nnc(N3CCCC3)c3cc(=O)n(C4CC4)cc23)cccc1C(F)(F)F` [Example 49, (R)-6-cyclopropyl-4-((1-(2-methyl-3-(trifluoromethyl)phenyl)ethyl)amino)-1-(pyrrolidin-1-yl) pyrido[3,4-d]pyridazin-7(6H)-one], for which the figures for the IC50 (in data set [1]; at SOS1) were 0.0551 µM and 0.006 µM, respectively.

As for `Cc1c([C@@H](C)Nc2nnc(N3CCCC3)c3cc(=O)n(C4(C)CC4)cc23)cccc1C(F)(F)F` [Example 61, (R)-4-((1-(2-methyl-3-(trifluoromethyl)phenyl)ethyl)amino)-6-(1-methylcyclopropyl)-1-(pyrrolidin-1-yl)pyrido[3,4-d]pyridazin-7(6H)-one], the IC50 worked out at 0.0318 µM in data set [1] and 0.0061 µM against SOS1.

With `Cc1c([C@@H](C)Nc2nnc(N3CCN(C)CC3)c3cc(=O)n(C4(C)CC4)cc23)cccc1C(F)(F)F` [Example 81, (R)-4-((1-(2-methyl-3-(trifluoromethyl)phenyl)ethyl)amino)-6-(1-methylcyclopropyl)-1-(4-methylpiperazin-1-yl)pyrido[3,4-d]pyridazin-7(6H)-one], the IC50 was found to be 0.0653 µM in data set [1] and 0.0063 µM on SOS1.

For `C[C@@H](Nc1nnc(N2CCN(C)CC2)c2cc(=O)n(C3CC3)cc12)c1cccc(S(F)(F)(F)(F)F)c1` [Example 89, (R)-6-cyclopropyl-1-(4-methylpiperazin-1-yl)-4-((1-(3-(pentafluoro-λ^6-sulfaneyl)phenyl)ethyl)amino)pyrido[3,4-d]pyridazin-7(6H)-one], the IC50 in data set [1] turned out to be 0.0586 µM; against SOS1, 0.0041 µM.

As for `CCNc1nnc(N[C@H](C)c2cccc(C(F)F)c2F)c2cn(C3(C)CC3)c(=O)cc12` [Example 105, (R)-4-((1-(3-(difluoromethyl)-2-fluorophenyl)ethyl)amino)-1-(ethylamino)-6-(1-methylcyclopropyl) pyrido[3,4-d]pyridazin-7(6H)-one], the values for the IC50 (in data set [1]; on SOS1) were 0.0581 µM and 0.0047 µM, respectively.

As to `C[C@@H](Nc1nnc(NC2CCOC2)c2cc(=O)n(C3(C)CC3)cc12)c1cccc(C(F)F)c1F` (stereo partly drawn) [Example 119, 4-(((R)-1-(3-(difluoromethyl)-2-fluorophenyl)ethyl)amino)-6-(1-methylcyclopropyl)-1-((tetrahydrofuran-3-yl)amino)pyrido[3,4-d]pyridazin-7(6H)-one formate], the IC50 in data set [1] worked out at 0.0591 µM; at SOS1 it was 0.0043 µM.

For the molecule `CC(C)C1CCN(c2nnc(N[C@H](C)c3cccc(C(F)F)c3F)c3cn(C4(C)CC4)c(=O)cc23)CC1` [Example 121, (R)-4-((1-(3-(difluoromethyl)-2-fluorophenyl)ethyl)amino)-1-(4-isopropylpiperidin-1-yl)-6-(1-methylcyclopropyl) pyrido[3,4-d]pyridazin-7(6H)-one], the half-life at 1 µM in data set [2] (NADPH, 37°C) was greater than 5 h. Moreover, in data set [2] (calculated from T1/2, fu defaulted to 1, read-out: CL(liver)), the CLint scaled at 1 µM was less than 0.434 L/h/kg. This molecule also displayed an IC50 on SOS1 of 0.0055 µM.

As for `CC1CN(c2nnc(N[C@H](C)c3cccc(C(F)F)c3F)c3cn(C4(C)CC4)c(=O)cc23)C1` [Example 130, (R)-4-((1-(3-(difluoromethyl)-2-fluorophenyl)ethyl)amino)-1-(3-methylazetidin-1-yl)-6-(1-methylcyclopropyl) pyrido[3,4-d]pyridazin-7(6H)-one], the IC50 in data set [1] was found to be 0.0478 µM; against SOS1 it was 0.0034 µM.

In the case of `C[C@@H](Nc1nnc(N2CCN(C)CC2)c2cc(=O)n(N3CCN(C)CC3)cc12)c1cccc(C(F)F)c1F` [Example 151, (R)-4-((1-(3-(difluoromethyl)-2-fluorophenyl)ethyl)amino)-1,6-bis(4-methylpiperazin-1-yl)pyrido[3,4-d]pyridazin-7(6H)-one], the IC50 in data set [1] came to 0.0394 µM; against SOS1, 0.0038 µM.

`Cc1nnc(N[C@H](C)c2cccc(C(F)(F)F)c2)c2cn(C3(C)CC3)c(=O)cc12` [comparative compound2, (R)-1-methyl-6-(1-methylcyclopropyl)-4-((1-(3-(trifluoromethyl)phenyl)ethyl)amino)pyrido[3,4-d]pyridazin-7(6H)-one hydrochloride, reference compound]: the IC50 in data set [1] came out at 0.377 µM.

As for `Cc1c([C@@H](C)Nc2nnc(C)c3cc(=O)n(C4(C)CC4)cc23)cccc1C(F)(F)F` [comparative compound 1, (R)-1-methyl-4-((1-(2-methyl-3-(trifluoromethyl)phenyl)ethyl)amino)-6-(1-methylcyclopropyl) pyrido[3,4-d]pyridazin-7(6H)-one, reference compound], the IC50 in data set [1] was found to be 0.282 µM.
